Measurements reported in ChEMBL document CHEMBL1201862, “PubChem BioAssay data set” (2004).
The source made the active and inactive calls.

Key:
[1] = molecular target: Dual specificity protein kinase CLK1 (Homo sapiens, UniProt P49759); test: inhibition of human CLK1 activity – biochemical, cherry-picked samples, selectivity assay for Dyrk1A inhibitor project, dose response (AID 588811)
[2] = molecular target: Dual specificity tyrosine-phosphorylation-regulated kinase 1A (Rattus norvegicus, UniProt Q63470); type: biochemical, Homo sapiens
[3] = NIH-3T3 fibroblast cytotoxicity, dose response, cytotoxicity control, cell-based, fluorescence, Alamar Blue, secondary assay (AID 2327); type: functional;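 note: NIH-3T3 mouse fibroblasts cultured with fluconazole at 8 µg/mL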
[4] = fluconazole-exposed Candida albicans growth modulators – fluorescence, retest, confirmation (AID 2467); type: functional, cell-based
[5] = HPDE-C7 pancreatic duct cell viability loss – fluorescence, HTS (AID 430); type: functional, cell-based; conditions: Homo sapiens
[6] = viability loss of HPDE-C7K cells – cell-based, fluorescence, HTS, primary screen (AID 431); type: functional; conditions: Homo sapiens
[7] = viability of PTEN-deleted HCT116 cells – cell-based, HCT116 PTEN knockout, dose response (AID 1047); type: functional;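 note: HCT116 colon tumor cells with PTEN knocked out; cells exposed to compound for 60 hours before readout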
[8] = viability of HCT116 lacking mutant beta-catenin – cell-based, human colon tumor, dose response (AID 1045); type: functional;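 note: HCT116 colon tumor cells with beta catenin knocked out; cells exposed to compound for 60 hours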
[9] = THP-1 cell cytotoxicity, dose response, cytotoxicity control for non-replicating M. tuberculosis project (AID 489025); type: functional
[10] = HepG2 cell cytotoxicity, dose response, cytotoxicity control for non-replicating M. tuberculosis project (AID 489018); type: functional; conditions: Mycobacterium tuberculosis
[11] = Vero E6 cell cytotoxicity, dose response, cytotoxicity control for non-replicating M. tuberculosis project, secondary assay (AID 492998); type: functional, VeroE6; conditions: Vero C1008
[12] = molecular target: T1, Microphthalmia-associated transcription factor (Homo sapiens, UniProt O75030); test: reducers of TRPM1 reporter luminescence, concentration series – cell-based, SK-MEL-5, cherry-picked, set 3, MITF inhibitor project, dose response (AID 493073); type: functional;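 note: SK-MEL-5 melanoma cells with luciferase driven by the MITF target TRPM1 promoter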
T1 sequence (O75030 whole entry): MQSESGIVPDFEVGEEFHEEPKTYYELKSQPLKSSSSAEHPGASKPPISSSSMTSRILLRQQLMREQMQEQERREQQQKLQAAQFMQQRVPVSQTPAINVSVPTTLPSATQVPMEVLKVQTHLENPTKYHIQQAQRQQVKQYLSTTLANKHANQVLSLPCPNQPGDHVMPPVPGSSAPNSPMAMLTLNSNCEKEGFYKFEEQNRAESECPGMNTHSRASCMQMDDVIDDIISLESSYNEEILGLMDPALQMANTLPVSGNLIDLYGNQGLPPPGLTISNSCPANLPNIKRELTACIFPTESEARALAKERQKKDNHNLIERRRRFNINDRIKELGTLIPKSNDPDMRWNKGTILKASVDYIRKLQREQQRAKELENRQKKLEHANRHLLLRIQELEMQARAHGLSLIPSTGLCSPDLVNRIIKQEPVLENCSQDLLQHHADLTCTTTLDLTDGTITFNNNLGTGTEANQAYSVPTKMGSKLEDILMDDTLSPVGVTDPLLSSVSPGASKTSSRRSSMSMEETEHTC

[13] = cells; type: functional
[14] = tested on: A-375; test: MITF: Counter assay: A375 proliferation Measured in Cell-Based System Using Plate Reader - 2084-03_Inhibitor_Dose_DryPowder_Activity. [Related pubchem assays (depositor defined):AID488944]; type: functional; conditions: Homo sapiens
[15] = tested on: A-375; test: proliferation inhibition in MITF-low A375 cells – cell-based, cherry-pick samples, set 2, counter-screen for MITF modulator project, dose response (AID 540335); type: functional; conditions: Homo sapiens
[16] = reduced cellular PGC1a acetyl-lysine signal – cell-based, cherry-picked samples, dose response (AID 720514); type: functional;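 note: potency may reflect raised or lowered acetylation signal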
[17] = HEK-293T cell viability reduction – luminescence, B-cell screen hits, cytotoxicity control for BCR NF-kB inhibitor project, dose response (AID 489021); type: functional, cell-based;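 note: HEK-293T cells carrying an NF-kB luciferase reporter; cells exposed to compound for about 14 hours before viability readout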
[18] = tested on: HEK293; test: HEK293T cell viability loss, resazurin readout – resazurin fluorescence, cytotoxicity control for NF-kB activator project, SAR follow-up (AID 493251); type: functional, cell-based; conditions: Homo sapiens
[19] = tested on: Jurkat; test: SAR Analysis of small molecule inhibitors of T-cell specific antigen receptor-induced NF-kB activation in a Jurkat cell line using a luminescence assay - Set 2. [Related pubchem assays (depositor defined):AID435003, AID435012, AID465]; type: functional, cell-based; conditions: Homo sapiens
[20] = tested on: HEK293; test: SAR Analysis of small molecule inhibitors of T-cell specific antigen receptor-induced NF-kB activation in a HEK-293T cell line using a luminescence assay - Set 2. [Related pubchem assays (depositor defined):AID435003, AID435012, AID489026]; type: functional, cell-based; conditions: Homo sapiens
[21] = tested on: Jurkat; test: blockers of NF-kB activation in T cells – Jurkat, luciferase reporter, luminescence, B- and T-cell, dose response (AID 489004); type: functional, cell-based; conditions: Homo sapiens;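 note: NF-kB luciferase reporter Jurkat cells stimulated with PMA plus ionomycin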
[22] = HEK-293T viability loss, compound-treated – cell-based, uHTS hits, cytotoxicity control for B/T-cell NF-kB inhibitor project, dose response (AID 489019); type: functional;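 note: IC50 reflects cytotoxicity as loss of cell viability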
[23] = tested on: H4; test: inhibitors of control reporter signal in H4 cells – cell-based, plate reader, dry powder samples, counter-screen for prion reporter project, dose response (AID 540255); type: functional; conditions: Homo sapiens
[24] = tested on: H4; test: Inhibitors of Prion Protein 5' UTR mRNA Measured in Cell-Based System Using Plate Reader - 2078-01_Inhibitor_Dose_DryPowder_Activity. [Related pubchem assays (depositor defined):AID488894]; type: functional; conditions: Homo sapiens
[25] = blockers of HIV-1 envelope-mediated cell-cell fusion – cherry-pick, dose response (AID 652057); type: functional, cell-based
[26] = blockers of HIV-1 ZM109 envelope-driven cell-cell fusion – HeLa effector, CEM target cells, luciferase, cherry-pick, dose response (AID 652058); type: functional, cell-based;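 note: luciferase signal from HIV-1 Env mediated cell-cell fusion of effector and target cells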
[27] = off-target signal loss in HeLa-CEM21 co-culture – HeLa F-luc CTL cells, cherry-picked, counter-screen for HIV-1 Env fusion inhibitor project, dose response (AID 652040); type: functional, cell-based;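 note: potency for signal decrease marking cytotoxic or nonspecific inhibition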
[28] = HIV-1 AD8 envelope cell-cell fusion blockers – cherry-pick, dose response (AID 652062); type: functional, cell-based;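 note: luciferase signal from cell-cell fusion driven by HIV-1 clade B AD8 Env; potency is for inhibitors of fusion seen as a drop in luminescence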
[29] = A549 cell cytotoxicity, dose response, cytotoxicity control, plate reader, cherry-pick, antagonist series (AID 743412); type: functional, cell-based
[30] = blockers of bursicon-stimulated LGR2 cAMP reporter – cell-based, HEK293, CRE-luciferase reporter, cherry pick, set 2, dose response (AID 743343); type: functional;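 note: transfected cells were stimulated with diluted bursicon conditioned medium after compound addition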
[31] = blockade of melanocortin 4 receptor signaling – cell-based, plate reader, cherry pick, counter-screen for LGR2 antagonist project, dose response (AID 743444); type: functional;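 note: transfected HEK 293 cells stimulated with alpha-MSH peptide; potency of inhibitors of the alpha-MSH evoked signal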
[32] = molecular target: E3 ubiquitin-protein ligase Mdm2 (Homo sapiens, UniProt Q00987); test: MDM2-luc reporter signal enhancers, multi-concentration potency testing, MDM2 ubiquitin-protein ligase inhibitor program, whole-cell format, luminescence detection, 384-well microplate (AID 1394); type: functional;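 note: MDM2 E3 inhibitors raise luminescence so EC50 is for signal enhancement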
Chain of E3 ubiquitin-protein ligase Mdm2 (Q00987 whole entry): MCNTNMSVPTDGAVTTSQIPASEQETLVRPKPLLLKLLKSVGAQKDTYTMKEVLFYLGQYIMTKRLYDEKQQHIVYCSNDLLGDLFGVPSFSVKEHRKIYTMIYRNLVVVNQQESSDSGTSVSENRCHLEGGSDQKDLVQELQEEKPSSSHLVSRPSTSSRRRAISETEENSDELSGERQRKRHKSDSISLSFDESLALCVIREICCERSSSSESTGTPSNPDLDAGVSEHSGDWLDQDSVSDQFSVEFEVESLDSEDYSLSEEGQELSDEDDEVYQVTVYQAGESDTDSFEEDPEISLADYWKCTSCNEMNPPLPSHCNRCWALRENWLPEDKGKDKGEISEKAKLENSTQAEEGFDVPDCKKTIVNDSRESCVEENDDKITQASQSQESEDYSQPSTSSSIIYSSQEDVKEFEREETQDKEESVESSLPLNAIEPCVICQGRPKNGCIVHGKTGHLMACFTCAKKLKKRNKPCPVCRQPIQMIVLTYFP

[33] = molecular target: Beta-galactosidase (Escherichia coli, UniProt Q8VNN2); test: PubChem AID 485352; type: functional
[34] = molecular target: T2, Type-1 angiotensin II receptor (Homo sapiens, UniProt P30556); test: antagonism of angiotensin II type 1 receptor – cell-based, uHTS hits, selectivity assay for APJ receptor antagonist project, dose response (AID 463214); type: functional;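 note: antagonist potency against angiotensin II stimulated AT1 response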
T2 sequence (P30556 whole entry): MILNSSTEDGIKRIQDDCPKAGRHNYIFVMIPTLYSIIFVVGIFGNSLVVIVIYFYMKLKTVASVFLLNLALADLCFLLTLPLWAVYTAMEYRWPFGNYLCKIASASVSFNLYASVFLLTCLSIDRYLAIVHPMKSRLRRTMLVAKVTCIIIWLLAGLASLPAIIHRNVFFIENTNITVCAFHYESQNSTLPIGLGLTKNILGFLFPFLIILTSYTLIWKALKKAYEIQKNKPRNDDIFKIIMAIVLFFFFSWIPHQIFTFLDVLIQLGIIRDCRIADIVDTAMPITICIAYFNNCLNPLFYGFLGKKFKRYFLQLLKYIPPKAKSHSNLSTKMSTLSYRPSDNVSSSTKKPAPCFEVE

[35] = HEK-293T viability loss after treatment – luminescence, T-cell screen hits, cytotoxicity control for TCR NF-kB inhibitor project, dose response (AID 489026); type: functional, cell-based;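 note: cells exposed to compound about 14 hours before the viability readout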
[36] = tested on: CHO; test: CHO cell viability loss, potency – luminescence, cytotoxicity control for TLR9-MyD88 binding inhibitor project, dose response (AID 588339); type: functional, cell-based, hamster; conditions: Cricetulus griseus;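 note: CHO cells stably coexpressing TLR9 and MyD88 fusions from primary screen; compound exposure lasted 48 hours before viability readout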
[37] = molecular target: Heat shock protein HSP 90-alpha (Homo sapiens, UniProt P07900); type: functional, organism-based
[38] = molecular target: Beta Lactamase (Pseudomonas aeruginosa, UniProt Q932Y6); test: BLA reporter interference, concentration series – BLA reporter cells, FRET fluorescence, artefact control for TLR9-MyD88 binding inhibitor project, dose response (AID 588341); type: cell-based;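 note: cell based assay in CHO-K1 cells stably expressing beta-lactamase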
Chain of Beta Lactamase (Q932Y6 whole entry): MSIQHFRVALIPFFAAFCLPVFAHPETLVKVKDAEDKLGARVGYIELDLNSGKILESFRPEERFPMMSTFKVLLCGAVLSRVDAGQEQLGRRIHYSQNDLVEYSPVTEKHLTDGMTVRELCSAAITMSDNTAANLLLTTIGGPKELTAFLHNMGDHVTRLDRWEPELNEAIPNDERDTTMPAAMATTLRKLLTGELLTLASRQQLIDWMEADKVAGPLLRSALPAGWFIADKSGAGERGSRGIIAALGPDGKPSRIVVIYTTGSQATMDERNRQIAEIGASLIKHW

[39] = molecular target: Melanocortin receptor 4 (Homo sapiens, UniProt P32245); test: inhibitors of MC4R cAMP signaling – cell-based, TR-FRET, biased antagonists, dose response (AID 602298); type: functional;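 note: antagonist potency against agonist-stimulated cAMP production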
Chain of Melanocortin receptor 4 (P32245 whole entry): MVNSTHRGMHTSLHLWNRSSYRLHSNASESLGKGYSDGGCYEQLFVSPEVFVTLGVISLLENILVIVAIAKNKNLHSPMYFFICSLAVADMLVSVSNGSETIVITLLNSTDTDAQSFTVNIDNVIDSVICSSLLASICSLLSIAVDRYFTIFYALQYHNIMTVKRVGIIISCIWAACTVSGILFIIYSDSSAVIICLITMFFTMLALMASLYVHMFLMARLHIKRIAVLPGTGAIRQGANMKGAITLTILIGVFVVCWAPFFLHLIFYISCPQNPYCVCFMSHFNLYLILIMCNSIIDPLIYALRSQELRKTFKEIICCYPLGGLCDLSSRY

[40] = reduction of Shn3 3'UTR-driven luciferase in osteoblasts – cell-based, Clone20 osteoblasts, firefly luciferase, cherry-picked, dose response (AID 624132); type: functional;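 note: firefly luciferase luminescence from reporter carrying the Shn3 3'UTR in osteoblasts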
[41] = non-specific 3'UTR reporter inhibition in Clone20-Shn3RL – cell-based, Renilla luciferase, cherry-picked, counter-screen for Shn3 inhibitor project, dose response (AID 624133); type: functional
[42] = cAMP pathway inhibition in counterscreen cell line – TR-FRET cAMP detection, counter-screen for MC4R biased antagonist project, dose response (AID 602305); type: functional, cell-based;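 note: U2OS cells stimulated with forskolin near its EC80 as the cAMP inducer; potency is for inhibition of forskolin-stimulated cAMP signaling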
[43] = molecular target: T3, Fatty acid synthase (Homo sapiens, UniProt P49327); test: inhibition of human FAS-TE enzyme activity – biochemical, endpoint fluorescence intensity, uHTS hits, dose response (AID 624327); type: functional;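 note: fluorescence from hydrolysis of an O-methyl fluorescein acyl ester substrate by the enzyme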
T3 sequence (P49327 whole entry): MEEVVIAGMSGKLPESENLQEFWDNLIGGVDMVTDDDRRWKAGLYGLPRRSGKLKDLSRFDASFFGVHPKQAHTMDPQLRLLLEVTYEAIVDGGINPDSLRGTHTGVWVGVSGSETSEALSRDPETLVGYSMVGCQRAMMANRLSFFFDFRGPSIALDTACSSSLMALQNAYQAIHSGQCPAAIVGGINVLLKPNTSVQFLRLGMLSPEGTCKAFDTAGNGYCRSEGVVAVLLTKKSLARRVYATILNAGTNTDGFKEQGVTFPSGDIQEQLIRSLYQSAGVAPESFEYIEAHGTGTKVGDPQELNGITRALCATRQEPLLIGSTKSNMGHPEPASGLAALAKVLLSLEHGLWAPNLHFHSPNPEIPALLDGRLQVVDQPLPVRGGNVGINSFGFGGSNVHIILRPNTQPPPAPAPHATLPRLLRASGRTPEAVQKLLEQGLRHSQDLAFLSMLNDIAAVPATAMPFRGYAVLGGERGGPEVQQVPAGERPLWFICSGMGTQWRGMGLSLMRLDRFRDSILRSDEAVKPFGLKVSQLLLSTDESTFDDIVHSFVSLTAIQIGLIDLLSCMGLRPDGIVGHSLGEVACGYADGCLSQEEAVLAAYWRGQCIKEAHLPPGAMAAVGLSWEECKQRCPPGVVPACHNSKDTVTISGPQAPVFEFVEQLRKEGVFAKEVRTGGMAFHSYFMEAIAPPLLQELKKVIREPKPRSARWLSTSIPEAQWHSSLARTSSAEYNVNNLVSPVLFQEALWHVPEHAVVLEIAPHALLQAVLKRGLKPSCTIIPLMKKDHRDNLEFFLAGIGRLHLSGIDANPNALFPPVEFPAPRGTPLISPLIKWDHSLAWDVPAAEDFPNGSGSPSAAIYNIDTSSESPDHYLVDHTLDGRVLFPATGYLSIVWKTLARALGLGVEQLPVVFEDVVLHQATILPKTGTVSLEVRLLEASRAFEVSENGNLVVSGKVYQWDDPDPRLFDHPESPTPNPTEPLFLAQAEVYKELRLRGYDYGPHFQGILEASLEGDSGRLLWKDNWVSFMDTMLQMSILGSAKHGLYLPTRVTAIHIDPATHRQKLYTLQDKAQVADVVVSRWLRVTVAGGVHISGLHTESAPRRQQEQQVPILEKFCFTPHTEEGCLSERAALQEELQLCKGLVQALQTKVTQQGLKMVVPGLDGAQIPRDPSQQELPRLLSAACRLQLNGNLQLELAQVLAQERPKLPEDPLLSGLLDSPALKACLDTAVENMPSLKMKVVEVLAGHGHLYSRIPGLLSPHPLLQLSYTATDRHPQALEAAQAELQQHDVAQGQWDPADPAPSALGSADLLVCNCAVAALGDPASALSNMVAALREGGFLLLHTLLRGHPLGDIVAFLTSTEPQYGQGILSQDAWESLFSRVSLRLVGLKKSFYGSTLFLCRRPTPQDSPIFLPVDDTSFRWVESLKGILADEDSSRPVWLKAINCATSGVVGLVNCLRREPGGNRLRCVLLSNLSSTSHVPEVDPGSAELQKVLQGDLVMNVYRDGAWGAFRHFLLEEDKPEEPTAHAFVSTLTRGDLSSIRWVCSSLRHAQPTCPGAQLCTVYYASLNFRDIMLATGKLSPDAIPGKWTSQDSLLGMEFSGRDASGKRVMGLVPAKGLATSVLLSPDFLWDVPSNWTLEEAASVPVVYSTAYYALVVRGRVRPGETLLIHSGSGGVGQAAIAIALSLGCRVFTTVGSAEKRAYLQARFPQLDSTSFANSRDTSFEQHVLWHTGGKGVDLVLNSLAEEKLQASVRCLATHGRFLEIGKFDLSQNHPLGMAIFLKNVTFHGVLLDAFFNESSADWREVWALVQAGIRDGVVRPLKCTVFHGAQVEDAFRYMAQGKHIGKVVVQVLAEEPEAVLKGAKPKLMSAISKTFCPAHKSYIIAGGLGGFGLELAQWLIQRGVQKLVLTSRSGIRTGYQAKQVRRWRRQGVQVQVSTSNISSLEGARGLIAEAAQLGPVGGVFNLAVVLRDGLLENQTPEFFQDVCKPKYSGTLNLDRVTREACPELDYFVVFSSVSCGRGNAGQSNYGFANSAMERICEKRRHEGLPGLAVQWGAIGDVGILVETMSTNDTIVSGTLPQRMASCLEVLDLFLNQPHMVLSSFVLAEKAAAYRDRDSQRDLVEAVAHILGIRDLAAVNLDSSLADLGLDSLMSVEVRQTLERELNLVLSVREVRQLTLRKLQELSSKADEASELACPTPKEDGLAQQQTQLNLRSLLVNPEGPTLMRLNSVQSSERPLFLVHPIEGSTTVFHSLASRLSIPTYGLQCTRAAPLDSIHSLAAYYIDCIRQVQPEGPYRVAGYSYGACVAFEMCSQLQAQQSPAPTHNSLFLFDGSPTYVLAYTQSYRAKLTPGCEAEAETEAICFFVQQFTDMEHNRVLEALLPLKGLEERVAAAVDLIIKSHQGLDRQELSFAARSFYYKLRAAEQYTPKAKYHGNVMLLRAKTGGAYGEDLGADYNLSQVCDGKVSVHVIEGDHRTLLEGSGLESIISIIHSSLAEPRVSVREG

[44] = viability loss in HeLa cells – cytotoxicity control for MgcRacGAP inhibitor project, dose response (AID 624300); type: functional
[45] = molecular target: T4, Rac GTPase-activating protein 1 (Homo sapiens, UniProt Q9H0H5); test: blockers of MgcRacGAP-driven Rac1 GTP hydrolysis – biochemical, ADP Hunter fluorescence, primary and confirmatory, confirmation (AID 624330); type: functional
T4 sequence (Q9H0H5 whole entry): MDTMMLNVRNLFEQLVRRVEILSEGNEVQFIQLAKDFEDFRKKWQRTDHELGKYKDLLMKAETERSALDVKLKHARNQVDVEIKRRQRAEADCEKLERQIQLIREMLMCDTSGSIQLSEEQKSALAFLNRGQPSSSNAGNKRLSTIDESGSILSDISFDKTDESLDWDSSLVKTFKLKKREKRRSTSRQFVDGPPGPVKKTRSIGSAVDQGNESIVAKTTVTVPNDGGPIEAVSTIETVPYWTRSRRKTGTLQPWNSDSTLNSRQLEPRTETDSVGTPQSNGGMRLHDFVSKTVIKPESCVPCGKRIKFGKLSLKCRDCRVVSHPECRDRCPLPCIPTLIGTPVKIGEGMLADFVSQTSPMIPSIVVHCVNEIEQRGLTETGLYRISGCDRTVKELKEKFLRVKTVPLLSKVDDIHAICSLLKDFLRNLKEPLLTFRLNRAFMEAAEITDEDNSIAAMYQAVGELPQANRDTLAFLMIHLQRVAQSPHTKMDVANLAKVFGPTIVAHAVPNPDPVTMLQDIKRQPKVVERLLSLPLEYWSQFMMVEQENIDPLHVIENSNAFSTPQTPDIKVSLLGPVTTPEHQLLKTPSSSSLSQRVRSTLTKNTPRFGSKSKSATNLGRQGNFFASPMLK

[46] = molecular target: T3, Fatty acid synthase; test: inhibition of human FAS-TE enzyme activity – biochemical, kinetic fluorescence intensity, dose response (AID 624326); type: functional;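 note: rate of fluorescence rise from hydrolysis of a fluorogenic O-methyl fluorescein ester substrate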
[47] = molecular target: DNA topoisomerase (Yersinia pestis, UniProt A0A2S9PM60); test: Yersinia topoisomerase I cleavage product accumulation – biochemical, cherry-pick, dose response (AID 588525)
Chain of DNA topoisomerase (A0A2S9PM60 whole entry): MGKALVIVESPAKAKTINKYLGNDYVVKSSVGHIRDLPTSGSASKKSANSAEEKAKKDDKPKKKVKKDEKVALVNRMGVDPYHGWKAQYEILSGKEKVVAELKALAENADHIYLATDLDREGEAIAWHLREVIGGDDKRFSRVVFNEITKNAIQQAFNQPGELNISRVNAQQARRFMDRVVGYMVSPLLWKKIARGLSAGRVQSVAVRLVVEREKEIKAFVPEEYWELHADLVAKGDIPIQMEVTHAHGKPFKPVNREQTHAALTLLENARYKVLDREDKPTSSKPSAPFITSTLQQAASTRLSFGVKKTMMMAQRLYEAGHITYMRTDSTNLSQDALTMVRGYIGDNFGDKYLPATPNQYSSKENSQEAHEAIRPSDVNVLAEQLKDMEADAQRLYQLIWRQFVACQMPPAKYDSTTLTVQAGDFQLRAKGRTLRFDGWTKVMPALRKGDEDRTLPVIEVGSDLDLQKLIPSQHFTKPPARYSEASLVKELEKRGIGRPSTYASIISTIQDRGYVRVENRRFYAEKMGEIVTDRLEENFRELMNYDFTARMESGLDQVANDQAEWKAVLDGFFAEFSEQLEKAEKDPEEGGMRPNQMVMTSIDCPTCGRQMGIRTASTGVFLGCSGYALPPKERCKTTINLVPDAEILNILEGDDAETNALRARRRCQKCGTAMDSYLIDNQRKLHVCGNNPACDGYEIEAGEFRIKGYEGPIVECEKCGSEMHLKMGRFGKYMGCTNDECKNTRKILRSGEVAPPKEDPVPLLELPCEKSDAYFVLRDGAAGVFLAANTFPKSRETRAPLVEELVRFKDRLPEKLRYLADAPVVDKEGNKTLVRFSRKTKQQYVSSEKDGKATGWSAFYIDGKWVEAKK

Chain of Dual specificity protein kinase CLK1 (P49759 whole entry): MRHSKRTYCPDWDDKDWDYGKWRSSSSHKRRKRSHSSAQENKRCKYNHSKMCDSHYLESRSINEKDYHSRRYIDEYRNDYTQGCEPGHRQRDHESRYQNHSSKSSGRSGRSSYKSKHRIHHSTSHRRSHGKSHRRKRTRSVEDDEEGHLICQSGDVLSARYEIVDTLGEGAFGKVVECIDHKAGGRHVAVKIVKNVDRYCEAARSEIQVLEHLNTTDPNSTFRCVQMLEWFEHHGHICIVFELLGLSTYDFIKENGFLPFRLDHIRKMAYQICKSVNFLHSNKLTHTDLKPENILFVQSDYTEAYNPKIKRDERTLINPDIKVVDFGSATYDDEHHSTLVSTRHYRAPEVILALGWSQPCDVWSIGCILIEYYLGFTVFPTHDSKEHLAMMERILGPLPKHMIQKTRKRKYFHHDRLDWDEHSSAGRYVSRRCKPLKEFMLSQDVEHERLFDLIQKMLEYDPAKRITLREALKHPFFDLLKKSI

COc1cccc(Nc2ncnc3sc(C)cc23)c1
active: AC50 [1] 5.47 µM | AC50 [2] 3.81 µM

COc1ccc(C(=O)C(CN2CCCC2)c2ccccc2)cc1 (stereo not drawn)
active: EC50 [3] 59.6 µM | EC50 [4] 2.13 µM | EC50 [5] 4.54 µM | EC50 [6] 6.46 µM | EC50 [7] 2.44 µM | EC50 [8] 1.83 µM | CC50 [9] 7.27 µM | CC50 [10] 17.3 µM | CC50 [11] 11.6 µM | AC50 [12] 9.13 µM | IC50 [13] 16.5 µM | AC50 [14] > 35 µM | AC50 [15] > 35 µM | AC50 [16] 10.5 µM

O=C(Nc1nc2c(Br)cc(Br)cc2c(=O)s1)c1ccco1
active: IC50 [19] 6.7 µM
inactive: IC50 [17] > 80 µM | IC50 [18] > 80 µM | IC50 [20] > 80 µM

COc1cccc(NC(=O)Nc2cccc(C(=O)O)c2)c1
inactive: IC50 [22] > 80 µM | AC50 [29] > 52 µM
active: IC50 [21] 1.9 µM | AC50 [12] 2.37 µM | AC50 [23] 3.95 µM | AC50 [24] 0.915 µM | AC50 [25] 1.8 µM | AC50 [26] 7.32 µM | AC50 [27] 2.11 µM | AC50 [28] 3.29 µM | AC50 [30] 1.56 µM | AC50 [31] 2.35 µM

COc1ccc(NC(=O)/C(Cl)=C(/Cl)[S+]([O-])Cc2ccc(Cl)cc2)cn1 (stereo not drawn)
active: EC50 [32] 0.62 µM | IC50 [34] 2.35 µM | IC50 [36] 0.463 µM | AC50 [37] 0.885 µM | IC50 [38] 7.83 µM | IC50 [39] 9.97 µM | AC50 [40] 1.34 µM | AC50 [41] 3.48 µM | IC50 [43] 5.57 µM | CC50 [44] 100 µM | IC50 [45] 16.9 µM | IC50 [46] 2.83 µM
inactive: EC50 [33] > 40 µM | IC50 [35] 41.7 µM | IC50 [42] > 64.6 µM

CC(C)CC1NC(=O)c2cc3ccccc3cc2-n2c1nc1cc(Cl)ccc1c2=O (stereo not drawn)
active: AC50 [47] 10.2 µM
